Experimental data published in ChEMBL document CHEMBL3885881, “DrugMatrix”.

Species on record: Rattus norvegicus
Assay: DrugMatrix - Regimen: Daily Repeat
Format: toxicity, organism-based, Sprague-Dawley
Parameters: regimen Daily Repeat, gender Male, age 6-8 weeks
Conditions: in vivo, po, route oral GAVAGE, […]; for ABSOLUTE BASOPHIL / ABSOLUTE EOSINOPHIL / ABSOLUTE LYMPHOCYTE / ABSOLUTE MONOCYTE / ABSOLUTE SEGMENTED NEUTROPHIL / BASOPHIL / EOSINOPHIL / ERYTHROCYTE COUNT / HEMATOCRIT / HEMOGLOBIN / LEUKOCYTE COUNT / LYMPHOCYTE / MEAN CORPUSCULAR HEMOGLOBIN / MEAN CORPUSCULAR HEMOGLOBIN CONCENTRATION / MEAN CORPUSCULAR VOLUME / MONOCYTE / NEUTROPHIL / NUCLEATED RED BLOOD CELLS / PLATELET COUNT: tissue Blood; for ALANINE AMINOTRANSFERASE / ALBUMIN / ALKALINE PHOSPHATASE / ASPARTATE AMINOTRANSFERASE / BLOOD UREA NITROGEN / CARBON DIOXIDE / CHLORIDE / CHOLESTEROL / CREATINE PHOSPHOKINASE / CREATININE / GLUCOSE / LACTATE DEHYDROGENASE / LIPASE / PHOSPHORUS / POTASSIUM / SODIUM / TOTAL BILIRUBIN / TOTAL PROTEIN / URIC ACID: tissue Plasma
[1] = 0 mg/kg, 72 h, dose level Control, time 3 day
[2] = 0 mg/kg, 120 h, dose level Control, time 5 day
[3] = 72 h, dose 4.2 mg/Kg, dose level Low, time 3 day
[4] = 120 h, dose 4.2 mg/Kg, dose level Low, time 5 day

O=NN(CCCl)C(=O)NC1CCCCC1 [LOMUSTINE]
ABSOLUTE BASOPHIL [1]: 0 CELLS/uL | ABSOLUTE EOSINOPHIL [1]: 70.67 CELLS/uL | ABSOLUTE LYMPHOCYTE [1]: 12761.5 CELLS/uL | ABSOLUTE MONOCYTE [1]: 214.17 CELLS/uL | ABSOLUTE SEGMENTED NEUTROPHIL [1]: 987 CELLS/uL | BASOPHIL [1]: 0% | EOSINOPHIL [1]: 0.5% | ERYTHROCYTE COUNT [1]: 5.61 x10E6/uL | HEMATOCRIT [1]: 35.22% | HEMOGLOBIN [1]: 13.57 G/DL | LEUKOCYTE COUNT [1]: 14.03 x10E3/uL | LYMPHOCYTE [1]: 91% | MEAN CORPUSCULAR HEMOGLOBIN [1]: 24.25 pg | MEAN CORPUSCULAR HEMOGLOBIN CONCENTRATION [1]: 38.52 G/DL | MEAN CORPUSCULAR VOLUME [1]: 62.9 fL | MONOCYTE [1]: 1.5% | NEUTROPHIL [1]: 7% | NUCLEATED RED BLOOD CELLS [1]: 0 /100WBC | PLATELET COUNT [1]: 997.5 x10E3/uL | ALANINE AMINOTRANSFERASE [1]: 66.5 u/L | ALBUMIN [1]: 3.98 G/DL | ALKALINE PHOSPHATASE [1]: 350 u/L | ASPARTATE AMINOTRANSFERASE [1]: 83.83 u/L | BLOOD UREA NITROGEN [1]: 12.33 mg/dL | CARBON DIOXIDE [1]: 30.33 mmol/L | CHLORIDE [1]: 100 MEQ/L | CHOLESTEROL [1]: 75 mg/dL | CREATINE PHOSPHOKINASE [1]: 200 u/L | CREATININE [1]: 0.17 mg/dL | GLUCOSE [1]: 170 mg/dL | LACTATE DEHYDROGENASE [1]: 89.33 u/L | LIPASE [1]: 10.33 u/L | PHOSPHORUS [1]: 10.88 mg/dL | POTASSIUM [1]: 6.13 MEQ/L | SODIUM [1]: 140.53 MEQ/L | TOTAL BILIRUBIN [1]: 0.2 mg/dL | TOTAL PROTEIN [1]: 5.67 G/DL | URIC ACID [1]: 1.6 mg/dL | ABSOLUTE BASOPHIL [2]: 0 CELLS/uL | ABSOLUTE EOSINOPHIL [2]: 0 CELLS/uL | ABSOLUTE LYMPHOCYTE [2]: 9526.67 CELLS/uL | ABSOLUTE MONOCYTE [2]: 134.17 CELLS/uL | ABSOLUTE SEGMENTED NEUTROPHIL [2]: 922.5 CELLS/uL | BASOPHIL [2]: 0% | EOSINOPHIL [2]: 0% | ERYTHROCYTE COUNT [2]: 5.58 x10E6/uL | HEMATOCRIT [2]: 34.78% | HEMOGLOBIN [2]: 13.5 G/DL | LEUKOCYTE COUNT [2]: 10.58 x10E3/uL | LYMPHOCYTE [2]: 90.17% | MEAN CORPUSCULAR HEMOGLOBIN [2]: 24.27 pg | MEAN CORPUSCULAR HEMOGLOBIN CONCENTRATION [2]: 38.82 G/DL | MEAN CORPUSCULAR VOLUME [2]: 62.48 fL | MONOCYTE [2]: 1.17% | NEUTROPHIL [2]: 8.67% | NUCLEATED RED BLOOD CELLS [2]: 0.17 /100WBC | PLATELET COUNT [2]: 807.17 x10E3/uL | ALANINE AMINOTRANSFERASE [2]: 66.83 u/L | ALBUMIN [2]: 3.73 G/DL | ALKALINE PHOSPHATASE [2]: 286.17 u/L | ASPARTATE AMINOTRANSFERASE [2]: 142.33 u/L | BLOOD UREA NITROGEN [2]: 14.67 mg/dL | CARBON DIOXIDE [2]: 25.5 mmol/L | CHLORIDE [2]: 89.17 MEQ/L | CHOLESTEROL [2]: 75.17 mg/dL | CREATINE PHOSPHOKINASE [2]: 310.67 u/L | CREATININE [2]: 0.2 mg/dL | GLUCOSE [2]: 153 mg/dL | LACTATE DEHYDROGENASE [2]: 1594 u/L | LIPASE [2]: 14.83 u/L | PHOSPHORUS [2]: 11.28 mg/dL | POTASSIUM [2]: 8.46 MEQ/L | SODIUM [2]: 126.88 MEQ/L | TOTAL BILIRUBIN [2]: 0.37 mg/dL | TOTAL PROTEIN [2]: 5.53 G/DL | URIC ACID [2]: 1.52 mg/dL | ABSOLUTE BASOPHIL [3]: 0 CELLS/uL | ABSOLUTE EOSINOPHIL [3]: 32.67 CELLS/uL | ABSOLUTE LYMPHOCYTE [3]: 10341.33 CELLS/uL | ABSOLUTE MONOCYTE [3]: 0 CELLS/uL | BASOPHIL [3]: 0% | EOSINOPHIL [3]: 0.33% | ERYTHROCYTE COUNT [3]: 5.55 x10E6/uL | HEMATOCRIT [3]: 34.1% | HEMOGLOBIN [3]: 13.57 G/DL | LEUKOCYTE COUNT [3]: 10.97 x10E3/uL | LYMPHOCYTE [3]: 94.33% | MEAN CORPUSCULAR HEMOGLOBIN [3]: 24.43 pg | MEAN CORPUSCULAR HEMOGLOBIN CONCENTRATION [3]: 39.77 G/DL | MEAN CORPUSCULAR VOLUME [3]: 61.4 fL | MONOCYTE [3]: 0% | NEUTROPHIL [3]: 5.33% | NUCLEATED RED BLOOD CELLS [3]: 0 /100WBC | PLATELET COUNT [3]: 1095 x10E3/uL | ALANINE AMINOTRANSFERASE [3]: 51.33 u/L | ALBUMIN [3]: 3.83 G/DL | ALKALINE PHOSPHATASE [3]: 333.67 u/L | ASPARTATE AMINOTRANSFERASE [3]: 87.33 u/L | BLOOD UREA NITROGEN [3]: 11.33 mg/dL | CARBON DIOXIDE [3]: 25.67 mmol/L | CHLORIDE [3]: 103 MEQ/L | CHOLESTEROL [3]: 70 mg/dL | CREATINE PHOSPHOKINASE [3]: 944.67 u/L | CREATININE [3]: 0.19 mg/dL | GLUCOSE [3]: 199 mg/dL | LACTATE DEHYDROGENASE [3]: 127 u/L | LIPASE [3]: 10.33 u/L | PHOSPHORUS [3]: 11.7 mg/dL | POTASSIUM [3]: 5.37 MEQ/L | SODIUM [3]: 142.27 MEQ/L | TOTAL BILIRUBIN [3]: 0.1 mg/dL | TOTAL PROTEIN [3]: 5.5 G/DL | URIC ACID [3]: 1.6 mg/dL | ABSOLUTE BASOPHIL [4]: 0 CELLS/uL | ABSOLUTE EOSINOPHIL [4]: 32 CELLS/uL | ABSOLUTE LYMPHOCYTE [4]: 5295.33 CELLS/uL | ABSOLUTE MONOCYTE [4]: 16 CELLS/uL | ABSOLUTE SEGMENTED NEUTROPHIL [4]: 290 CELLS/uL | BASOPHIL [4]: 0% | EOSINOPHIL [4]: 0.67% | ERYTHROCYTE COUNT [4]: 5.43 x10E6/uL | HEMATOCRIT [4]: 33.87% | HEMOGLOBIN [4]: 13.53 G/DL | LEUKOCYTE COUNT [4]: 5.63 x10E3/uL | LYMPHOCYTE [4]: 94% | MEAN CORPUSCULAR HEMOGLOBIN [4]: 24.9 pg | MEAN CORPUSCULAR HEMOGLOBIN CONCENTRATION [4]: 39.97 G/DL | MEAN CORPUSCULAR VOLUME [4]: 62.43 fL | MONOCYTE [4]: 0.33% | NEUTROPHIL [4]: 5% | NUCLEATED RED BLOOD CELLS [4]: 0 /100WBC | PLATELET COUNT [4]: 1171.33 x10E3/uL | ALANINE AMINOTRANSFERASE [4]: 53.33 u/L | ALBUMIN [4]: 4.17 G/DL | ALKALINE PHOSPHATASE [4]: 336 u/L | ASPARTATE AMINOTRANSFERASE [4]: 97.33 u/L | BLOOD UREA NITROGEN [4]: 10 mg/dL | CARBON DIOXIDE [4]: 31.33 mmol/L | CHLORIDE [4]: 101 MEQ/L | CHOLESTEROL [4]: 63.33 mg/dL | CREATINE PHOSPHOKINASE [4]: 631.67 u/L | CREATININE [4]: 0.13 mg/dL | GLUCOSE [4]: 157 mg/dL | LACTATE DEHYDROGENASE [4]: 132 u/L | LIPASE [4]: 11 u/L | PHOSPHORUS [4]: 10.57 mg/dL | POTASSIUM [4]: 5.78 MEQ/L | SODIUM [4]: 147.05 MEQ/L | TOTAL BILIRUBIN [4]: 0.13 mg/dL | TOTAL PROTEIN [4]: 5.93 G/DL | URIC ACID [4]: 0.77 mg/dL
